Test results: ChEMBL document CHEMBL4376820, “Homodimeric Tobramycin Adjuvant Repurposes Novobiocin as an Effective Antibacterial Agent against Gram-Negative Bacteria” (J Med Chem, 2019)

Columns and labels:
[1] = tested on: Pseudomonas aeruginosa; experiment: Synergistic antibacterial activity against wild type Pseudomonas aeruginosa PAO1 assessed as potentiation of meropenem-induced antibacterial effect incubated for 18 hrs by checkerboard assay; format: functional, organism-based
[2] = tested on: HepG2; experiment: Cytotoxicity against human HepG2 cells at 50 uM incubated for 48 hrs by PrestoBlue dye based fluorescence assay; format: cell-based; conditions: hepg2, 48 h
[3] = tested on: Pseudomonas aeruginosa; experiment: Synergistic antibacterial activity against wild type Pseudomonas aeruginosa PAO1 assessed as potentiation of linezolid-induced antibacterial effect incubated for 18 hrs by checkerboard assay; format: functional, organism-based
[4] = tested on: Pseudomonas aeruginosa; experiment: Synergistic antibacterial activity against wild type Pseudomonas aeruginosa PAO1 assessed as potentiation of rifampicin-induced antibacterial effect incubated for 18 hrs by checkerboard assay relative to rifampicin alone; format: functional
[5] = tested on: Pseudomonas aeruginosa; experiment: Synergistic antibacterial activity against wild type Pseudomonas aeruginosa PAO1 assessed as potentiation of moxifloxacin-induced antibacterial effect incubated for 18 hrs by checkerboard assay relative to moxifloxacin alone; format: functional
[6] = tested on: Pseudomonas aeruginosa; experiment: Potentiation of novobiocin-induced antibacterial activity against wild type Pseudomonas aeruginosa PAO1 assessed as novobiocin MIC at <= 7.1 uM incubated for 18 hrs by CLSI protocol based assay (reference value: 512 ug/ml); format: functional; conditions: PAO1, 18 h
[7] = tested on: Pseudomonas aeruginosa; experiment: Potentiation of novobiocin-induced antibacterial activity against carbapenem-resistant Pseudomonas aeruginosa 259-96918 clinical isolate assessed as novobiocin MIC at <= 7.1 uM incubated for 18 hrs by CLSI protocol based assay (reference value: 512 ug/ml); format: functional; conditions: 259-96918, 18 h
[8] = tested on: Pseudomonas aeruginosa; experiment: Potentiation of novobiocin-induced antibacterial activity against carbapenem-resistant Pseudomonas aeruginosa 260-97103 clinical isolate assessed as novobiocin MIC at <= 7.1 uM incubated for 18 hrs by CLSI protocol based assay (reference value: 256 ug/ml); format: functional; conditions: 260-97103, 18 h
[9] = tested on: Pseudomonas aeruginosa; experiment: Potentiation of novobiocin-induced antibacterial activity against carbapenem-resistant Pseudomonas aeruginosa 100036 clinical isolate assessed as novobiocin MIC at <= 7.1 uM incubated for 18 hrs by CLSI protocol based assay (reference value: 1024 ug/ml); format: functional; conditions: Pseudomonas aeruginosa, 100036, 18 h
[10] = tested on: Acinetobacter baumannii; experiment: Potentiation of novobiocin-induced antibacterial activity against wild type Acinetobacter baumannii ATCC 17978 assessed as novobiocin MIC at <= 7.1 uM incubated for 18 hrs by CLSI protocol based assay (reference value: 16 ug/ml); format: functional; conditions: ATCC 17978, 18 h
[11] = tested on: Acinetobacter baumannii; experiment: Potentiation of novobiocin-induced antibacterial activity against Acinetobacter baumannii 031 clinical isolate assessed as novobiocin MIC at <= 7.1 uM incubated for 18 hrs by CLSI protocol based assay (reference value: 8 ug/ml); format: functional; conditions: Acinetobacter baumannii, 031, 18 h
[12] = tested on: Escherichia coli; experiment: Potentiation of novobiocin-induced antibacterial activity against carbapenem-resistant Escherichia coli 107115 clinical isolate harboring mcr-1 gene assessed as novobiocin MIC at <= 7.1 uM incubated for 18 hrs by CLSI protocol based assay (reference value: 128 ug/ml); format: functional; conditions: Escherichia coli, 107115, 18 h
[13] = tested on: Pseudomonas aeruginosa; experiment: Antibacterial activity against wild type Pseudomonas aeruginosa PAO1 incubated for 18 hrs by CLSI protocol based assay; format: functional; conditions: PAO1, 18 h
[14] = tested on: Acinetobacter baumannii; experiment: Antibacterial activity against Acinetobacter baumannii 110193 clinical isolate incubated for 18 hrs by CLSI protocol based assay; format: functional; conditions: Acinetobacter baumannii, 110193, 18 h
[15] = tested on: Escherichia coli; experiment: Antibacterial activity against colistin-resistant Escherichia coli 94474 clinical isolate harboring mcr-1 gene incubated for 18 hrs by CLSI protocol based assay; format: functional; conditions: Escherichia coli, 94474, 18 h
[16] = tested on: Escherichia coli; experiment: Antibacterial activity against carbapenem-resistant Escherichia coli 107115 clinical isolate harboring mcr-1 gene incubated for 18 hrs by CLSI protocol based assay; format: functional; conditions: Escherichia coli, 107115, 18 h
[17] = tested on: Enterobacter cloacae; experiment: Antibacterial activity against Enterobacter cloacae 117029 clinical solate incubated for 18 hrs by CLSI protocol based assay; format: functional; conditions: Enterobacter cloacae, 117029, 18 h
[18] = tested on: Enterobacter cloacae; experiment: Antibacterial activity against colistin-resistant Enterobacter cloacae 121187 clinical solate incubated for 18 hrs by CLSI protocol based assay; format: functional; conditions: Enterobacter cloacae, 121187, 18 h
[19] = tested on: Pseudomonas aeruginosa; experiment: Potentiation of novobiocin-induced antibacterial activity against carbapenem-resistant Pseudomonas aeruginosa 259-96918 clinical isolate assessed as fold reduction in novobiocin MIC incubated for 18 hrs by CLSI protocol based assay relative to novobiocin MIC; format: functional
[20] = tested on: Pseudomonas aeruginosa; experiment: Potentiation of novobiocin-induced antibacterial activity against carbapenem-resistant Pseudomonas aeruginosa 264-104354 clinical isolate assessed as fold reduction in novobiocin MIC incubated for 18 hrs by CLSI protocol based assay relative to novobiocin MIC; format: functional
[21] = tested on: Pseudomonas aeruginosa; experiment: Potentiation of novobiocin-induced antibacterial activity against carbapenem and colistin-resistant Pseudomonas aeruginosa 114228 clinical isolate assessed as fold reduction in novobiocin MIC incubated for 18 hrs by CLSI protocol based assay relative to novobiocin MIC; format: functional
[22] = tested on: Acinetobacter baumannii; experiment: Potentiation of novobiocin-induced antibacterial activity against Acinetobacter baumannii 110193 clinical isolate assessed as fold reduction in novobiocin MIC incubated for 18 hrs by CLSI protocol based assay relative to novobiocin MIC; format: functional
[23] = tested on: Escherichia coli; experiment: Potentiation of novobiocin-induced antibacterial activity against colistin-resistant Escherichia coli 94474 clinical isolate harboring mcr-1 gene assessed as fold reduction in novobiocin MIC incubated for 18 hrs by CLSI protocol based assay relative to novobiocin MIC; format: functional
[24] = tested on: Klebsiella pneumoniae; experiment: Potentiation of novobiocin-induced antibacterial activity against colistin-resistant Klebsiella pneumoniae 113250 clinical isolate assessed as fold reduction in novobiocin MIC incubated for 18 hrs by CLSI protocol based assay relative to novobiocin MIC; format: functional
[25] = tested on: Klebsiella pneumoniae; experiment: Potentiation of novobiocin-induced antibacterial activity against colistin-resistant Klebsiella pneumoniae 113254 clinical isolate assessed as fold reduction in novobiocin MIC incubated for 18 hrs by CLSI protocol based assay relative to novobiocin MIC; format: functional
[26] = tested on: Enterobacter cloacae; experiment: Potentiation of novobiocin-induced antibacterial activity against colistin-resistant Enterobacter cloacae 118568 clinical solate assessed as fold reduction in novobiocin MIC incubated for 18 hrs by CLSI protocol based assay relative to novobiocin MIC; format: functional
[27] = tested on: Pseudomonas aeruginosa; experiment: Potentiation of novobiocin-induced antibacterial activity against mexAB-oprM mutant deficient Pseudomonas aeruginosa PAO200 assessed as novobiocin MIC at <= 7.1 uM incubated for 18 hrs by CLSI protocol based assay (reference value: 32 ug/ml); format: functional; conditions: PAO200, 18 h
[28] = tested on: Pseudomonas aeruginosa; experiment: Bactericidal activity against Pseudomonas aeruginosa PAO1 assessed as log reduction in colony forming units per ml at 7.1 uM in LB media after 24 hrs in presence of 50.4 uM novobiocin by time-kill assay; format: functional
[29] = tested on: Klebsiella pneumoniae; experiment: Bactericidal activity against Klebsiella pneumoniae 116381 assessed as log reduction in colony forming units per ml at 7.1 in LB media after 24 hrs by time-kill assay; format: functional
[30] = tested on: Pseudomonas aeruginosa; experiment: Induction of outer membrane permeabilization in Pseudomonas aeruginosa PAO1 assessed as increase in accumulation of NPN by measuring fluorescence intensity measured immediately by NPN dye uptake assay; format: organism-based
[31] = tested on: Acinetobacter baumannii; experiment: Antibacterial activity against colistin-resistant Acinetobacter baumannii ATCC 17978 mutant generated from seven serial passages by checkerboard assay; format: functional
[32] = tested on: Acinetobacter baumannii; experiment: Antibacterial activity against novobiocin and test compound-resistant Acinetobacter baumannii ATCC 17978 mutant generated from seven serial passages in presence of novobiocin by checkerboard assay; format: functional

With `NC[C@H]1O[C@H](O[C@H]2[C@H](OCCCCc3cn(CCCCO[C@@H]4[C@@H](O[C@H]5O[C@H](CO)[C@@H](O)[C@H](N)[C@H]5O)[C@H](N)C[C@H](N)[C@H]4O[C@H]4O[C@H](CN)[C@@H](O)C[C@H]4N)nn3)[C@@H](O[C@H]3O[C@H](CO)[C@@H](O)[C@H](N)[C@H]3O)[C@H](N)C[C@@H]2N)[C@H](N)C[C@@H]1O.O=C(O)C(F)(F)F.O=C(O)C(F)(F)F.O=C(O)C(F)(F)F.O=C(O)C(F)(F)F.O=C(O)C(F)(F)F.O=C(O)C(F)(F)F.O=C(O)C(F)(F)F.O=C(O)C(F)(F)F.O=C(O)C(F)(F)F.O=C(O)C(F)(F)F` the Activity [1] was “Dose-dependent effect”, the Activity [2] was “Non-Toxic” and the Activity [3] was “Dose-dependent effect”. For the same compound, the “fold change (FC)” value [4] was 4 - 128, the “fold change (FC)” value [5] was 4 - 128 and the MIC [6] was 4 µg/mL. It also gave an MIC [7] of 8 µg/mL, an MIC [8] of 1 µg/mL and an MIC [9] of 8 µg/mL. The MIC [10] was 0.5 µg/mL, the MIC [11] was 0.5 µg/mL and the MIC [12] was 8 µg/mL. The MIC [13] was over 128 µg/mL, the MIC [14] was over 128 µg/mL and the MIC [15] was over 128 µg/mL. The MIC [16] was over 128 µg/mL, the MIC [17] was over 128 µg/mL and the MIC [18] was over 128 µg/mL. It also gave a Ratio [19] of 64, a Ratio [20] of 64 and a Ratio [21] of 32. The Ratio [22] was 256, the Ratio [23] was 16 and the Ratio [24] was 32. The Ratio [25] was 16, the Ratio [26] was 32 and the MIC [27] was 0.125 µg/mL. For the same compound, the Activity [28] was -9.48 CFU/ml, the Activity [29] was -8.68 CFU/ml and the Activity [30] was “Dose-dependent effect”. It also gave an MIC [31] of under 0.031 µg/mL and an MIC [32] of 16 µg/mL.
